By IC50 is commonly meant the concentration needed to halve the response being measured.

Data on four compounds can be found in US20210070779A1, “BORON-CONTAINING SMALL MOLECULES AS ANTI-INFLAMMATORY AGENTS” (Anacor Pharmaceuticals, Inc., priority 2013, published 2021).

Molecules are shown by their SMILES. Read-outs that look alike come from different tables or passages of the source.

For this assay, the target named is Human PDE4 (PDE4B2 truncated catalytic domain) (Homo sapiens, UniProt Q07343). Briefly: Measurement of Phosphodiesterase 4 (PDE4) inhibition, zinc and barium precipitation method. It is filed as biochemical. As for the experimental part: Measurement of Phosphodiesterase 4 (PDE4) Inhibition
Sequence of Human PDE4 (PDE4B2 truncated catalytic domain) (Q07343 212-659): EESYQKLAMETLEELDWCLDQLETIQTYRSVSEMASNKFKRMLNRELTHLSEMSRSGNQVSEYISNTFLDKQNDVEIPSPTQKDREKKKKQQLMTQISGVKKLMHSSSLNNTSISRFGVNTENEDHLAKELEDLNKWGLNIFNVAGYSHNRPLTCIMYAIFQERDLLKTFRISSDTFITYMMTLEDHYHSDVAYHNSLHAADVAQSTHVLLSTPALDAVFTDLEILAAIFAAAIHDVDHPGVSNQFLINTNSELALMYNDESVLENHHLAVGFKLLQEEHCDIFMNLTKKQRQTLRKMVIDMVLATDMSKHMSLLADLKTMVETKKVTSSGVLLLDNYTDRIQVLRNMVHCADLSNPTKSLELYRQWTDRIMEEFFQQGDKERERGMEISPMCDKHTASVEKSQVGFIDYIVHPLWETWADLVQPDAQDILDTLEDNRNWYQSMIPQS
Human PDE4 enzymatic activity was assayed using the zinc and barium precipitation method of Saldou, N. et al (1998: Cell Signal, vol 10, No. 6, pp 427-440). The assay was performed in 96-well v-bottom plates (BrandPlates, Wertheim, Germany). PDE4B2 truncated is the catalytic domain including the UCR2 and a portion of the UCR1 domain of PDE4B2 (23.4 mg/mL) from Proteros Biostructures. Final concentration of enzyme in the assay was 0.3 pM. Stocks of the tested compounds were prepared in 100% DMSO at a concentration of 40 mM. The 100-μL reaction volume consisted of 45 mM Tris-HCl, pH 7.5, 12.5 mM MgSO4, 0.3 μM […] (Sigma, St Louis, Mo.) supplemented with 0.2 μM ^3H-cAMP (Perkin Elmer, Waltham, Mass.). Compounds were pre-incubated with enzyme at room temperature for 20 min prior to initiating the reaction by adding substrate (cAMP supplemented with ^3H-cAMP). After incubation at 30° C. for 6 minutes, the reaction was stopped by the addition of 50 μL fresh made 21.5 mM ZnSO4.7H2O (Alfa Aesar, Ward Hill, Mass.) containing 5 mM AMP as a co-precipitant. Total AMP was precipitated by the addition of 50 μL 17.5 mM Ba(OH)2, prepared fresh daily in water. The precipitate was transferred and collected by filtration onto a 96-well GF/B plate (Millipore, Ireland). The plates were washed five times with cold wash solution (1 mM NaOH, 100 mM NaCl) and dried at 65° C. The bottoms of plates were sealed with clear tapes (Millipore Co-operation, Billerica, Mass.) and 40 μL of scintillation cocktail (Perkin Elmer Waltham, Mass.). The plates were top sealed and radioactivity was measured with an Elmer Packard TopCount scintillation counter.

Setting [1] is: PDE4B2 truncated, 0.3 pM enzyme, 3H-cAMP substrate, 30° C. 6 minutes, read-out: PDE4 IC50.

With `N#Cc1ccc(C(=O)c2ccc3c(c2)COB3O)cc1` [A, 4-(1-hydroxy-1,3-dihydrobenzo[c][1,2]oxaborole-5-carbonyl)benzonitrile], the IC50 stood at 0.504 µM.

`N#Cc1ccc(C(O)c2ccc3c(c2)COB3O)cc1` (stereo not shown) [B, 4-(hydroxy(1-hydroxy-1,3-dihydrobenzo[c][1,2]oxaborol-5-yl)methyl)benzonitrile]: the IC50 under setting [1] came out at 1.73 µM.

Turning to `N#Cc1ccc(Cc2ccc3c(c2)COB3O)cc1` [C, 4-((1-hydroxy-1,3-dihydrobenzo[c][1,2]oxaborol-5-yl)methyl)benzonitrile], the IC50 under setting [1] amounted to 1.77 µM.

In the case of `N#Cc1ccc([S+]([O-])c2ccc3c(c2)COB3O)cc1` (stereo not shown) [D, 4-(1-hydroxy-1,3-dihydrobenzo[c][1,2]oxaborol-5-ylsulfinyl)benzonitrile], the IC50 under setting [1] came to 0.062 µM.
